Results published in US11168093B2, “Thienopyridine inhibitors of RIPK2” (Celgene Corporation, priority 2018, dated 2021).

Target: RIPK2 enzyme (Homo sapiens (Human), UniProt O43353)
Experiment: RIPK2 inhibition assay, TR-FRET LanthaScreen Tracer 199 screening assay
Assay type: binding
Settings: 5 nM RIPK2 enzyme, Tracer 199 at 50 nM, Eu-anti-His Antibody at 2 nM, 1 hour incubation
Description: All data was collected using a standard TR-FRET screening assay: LanthaScreen Tracer 199 at 50 nM, Eu-anti-His Antibody at 2 nM, 5 nM RIPK2 enzyme, and 1× Kinase Reaction Buffer. There was a 1 hour incubation prior to read. TR-FRET signal of the interaction (340Ex/665Em/615Em) was read at room temperature with standard setting. Background was subtracted of wells containing no enzyme. Percent inhibition was based on uninhibited controls log (inhibitor) vs. response. Variable slope equation was used with no constraints: Log Y=Bottom+(Top−Bottom)/(1+10^((Log IC50−X)*Hill Slope)).
The compound numbers correspond to the compound numbers above.

Chain of RIPK2 enzyme (O43353 whole entry): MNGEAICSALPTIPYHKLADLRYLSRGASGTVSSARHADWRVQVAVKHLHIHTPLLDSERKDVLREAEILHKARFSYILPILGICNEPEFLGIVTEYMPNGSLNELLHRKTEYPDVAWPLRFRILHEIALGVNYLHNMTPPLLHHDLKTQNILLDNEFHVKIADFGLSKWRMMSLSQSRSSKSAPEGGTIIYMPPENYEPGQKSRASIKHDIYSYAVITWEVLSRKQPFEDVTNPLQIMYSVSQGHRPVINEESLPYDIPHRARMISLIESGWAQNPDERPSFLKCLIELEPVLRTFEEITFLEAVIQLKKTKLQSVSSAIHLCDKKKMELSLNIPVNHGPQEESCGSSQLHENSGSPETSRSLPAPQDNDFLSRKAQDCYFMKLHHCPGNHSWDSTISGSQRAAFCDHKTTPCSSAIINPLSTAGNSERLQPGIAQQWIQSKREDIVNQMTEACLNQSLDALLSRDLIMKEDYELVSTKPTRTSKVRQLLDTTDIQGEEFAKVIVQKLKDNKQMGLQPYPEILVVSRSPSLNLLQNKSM

IC50 | SMILES
≤ 10 nM | CC1NCCCC1c1cc2c(Nc3ccc4scnc4c3F)c(F)cnc2s1 (single isomer, unassigned) [Example 124c, 4-fluoro-N-(5-fluoro-2-(2-methylpiperidin-3-yl)thieno[2,3-b]pyridin-4-yl)benzo[d]thiazol-5-amine]
≥ 50 nM | CC1NCCCC1c1cc2c(Nc3ccc4scnc4c3F)c(F)cnc2s1 (single isomer, unassigned) [Example 124d, 4-fluoro-N-(5-fluoro-2-(2-methylpiperidin-3-yl)thieno[2,3-b]pyridin-4-yl)benzo[d]thiazol-5-amine]
≥ 50 nM | CC1C(c2cc3c(Nc4ccc5scnc5c4F)c(F)cnc3s2)CCCN1C (single isomer, unassigned) [Example 125a, N-(2-(1,2-dimethylpiperidin-3-yl)-5-fluorothieno[2,3-b]pyridin-4-yl)-4-fluorobenzo[d]thiazol-5-amine]
10 to 20 nM | CC1C(c2cc3c(Nc4ccc5scnc5c4F)c(F)cnc3s2)CCCN1C (single isomer, unassigned) [Example 125b, N-(2-(1,2-dimethylpiperidin-3-yl)-5-fluorothieno[2,3-b]pyridin-4-yl)-4-fluorobenzo[d]thiazol-5-amine]
≤ 10 nM | CC1C(c2cc3c(Nc4ccc5scnc5c4F)c(F)cnc3s2)CCCN1C (single isomer, unassigned) [Example 125c, N-(2-(1,2-dimethylpiperidin-3-yl)-5-fluorothieno[2,3-b]pyridin-4-yl)-4-fluorobenzo[d]thiazol-5-amine]
≥ 50 nM | CC1C(c2cc3c(Nc4ccc5scnc5c4F)c(F)cnc3s2)CCCN1C (single isomer, unassigned) [Example 125d, N-(2-(1,2-dimethylpiperidin-3-yl)-5-fluorothieno[2,3-b]pyridin-4-yl)-4-fluorobenzo[d]thiazol-5-amine]
10 to 20 nM | CC1NCCCC1c1cc2c(Nc3c(F)cc4scnc4c3F)c(F)cnc2s1 (single isomer, unassigned) [Example 126d, 4,6-difluoro-N-(5-fluoro-2-(2-methylpiperidin-3-yl)thieno[2,3-b]pyridin-4-yl)benzo[d]thiazol-5-amine]
20 to 50 nM | CC1C(c2cc3c(Nc4c(F)cc5scnc5c4F)c(F)cnc3s2)CCCN1C (single isomer, unassigned) [Example 127a]
10 to 20 nM | CC1C(c2cc3c(Nc4c(F)cc5scnc5c4F)c(F)cnc3s2)CCCN1C (single isomer, unassigned) [Example 127d]
≤ 10 nM | C[C@@H]1[C@H](c2cc3c(Nc4ccc5scnc5c4)ccnc3s2)CCCN1C [Example 4c, N-(2-(1,2-dimethylpiperidin-3-yl)thieno[2,3-b]pyridin-4-yl)benzo[d]thiazol-5-amine]
≤ 10 nM | C[C@H]1[C@@H](c2cc3c(Nc4ccc5scnc5c4)ccnc3s2)CCCN1C [Example 4d, N-(2-(1,2-dimethylpiperidin-3-yl)thieno[2,3-b]pyridin-4-yl)benzo[d]thiazol-5-amine]
≤ 10 nM | COCCN1CCC=C(c2cc3c(Nc4ccc5scnc5c4)ccnc3s2)[C@H]1C [Example 12a, N-(2-(1-(2-methoxyethyl)-2-methyl-1,2,5,6-tetrahydropyridin-3-yl)thieno[2,3-b]pyridin-4-yl)benzo[d]thiazol-5-amine]
≤ 10 nM | COCCN1CCC=C(c2cc3c(Nc4ccc5scnc5c4)ccnc3s2)[C@@H]1C [Example 12b, N-(2-(1-(2-methoxyethyl)-2-methyl-1,2,5,6-tetrahydropyridin-3-yl)thieno[2,3-b]pyridin-4-yl)benzo[d]thiazol-5-amine]
≤ 10 nM | CCC1C(c2cc3c(Nc4ccc5scnc5c4)ccnc3s2)CCCN1C (stereo not shown) [Example 23a, N-(2-(2-ethyl-1-methylpiperidin-3-yl)thieno[2,3-b]pyridin-4-yl)benzo[d]thiazol-5-amine]

The next lines start with the compound.

SMILES | IC50
CC1NCCC=C1c1cc2c(Nc3ccc4scnc4c3)ccnc2s1 (stereo not shown) [Example 1, N-(2-(2-methyl-1,2,5,6-tetrahydropyridin-3-yl)thieno[2,3-b]pyridin-4-yl)benzo[d]thiazol-5-amine] | ≤ 10 nM
CC1C(c2cc3c(Nc4ccc5scnc5c4)ccnc3s2)=CCCN1C (stereo not shown) [Example 2, N-(2-(1,2-dimethyl-1,2,5,6-tetrahydropyridin-3-yl)thieno[2,3-b]pyridin-4-yl)benzo[d]thiazol-5-amine] | ≤ 10 nM
CC1NCCCC1c1cc2c(Nc3ccc4scnc4c3)ccnc2s1 (stereo not shown) [Example 3, N-(2-(2-methylpiperidin-3-yl)thieno[2,3-b]pyridin-4-yl)benzo[d]thiazol-5-amine] | ≤ 10 nM
CC1C(c2cc3c(Nc4ccc5scnc5c4)ccnc3s2)CCCN1C (stereo not shown) [Example 4, N-(2-(1,2-dimethylpiperidin-3-yl)thieno[2,3-b]pyridin-4-yl)benzo[d]thiazol-5-amine] | ≤ 10 nM
CCN1CCC=C(c2cc3c(Nc4ccc5scnc5c4)ccnc3s2)C1C (stereo not shown) [Example 5, N-(2-(1-ethyl-2-methyl-1,2,5,6-tetrahydropyridin-3-yl)thieno[2,3-b]pyridin-4-yl)benzo[d]thiazol-5-amine] | ≤ 10 nM
CCN1CCCC(c2cc3c(Nc4ccc5scnc5c4)ccnc3s2)C1C (stereo not shown) [Example 6, N-(2-(1-ethyl-2-methylpiperidin-3-yl)thieno[2,3-b]pyridin-4-yl)benzo[d]thiazol-5-amine] | ≤ 10 nM
CC(C)N1CCC=C(c2cc3c(Nc4ccc5scnc5c4)ccnc3s2)C1C (stereo not shown) [Example 7, N-(2-(1-isopropyl-2-methyl-1,2,5,6-tetrahydropyridin-3-yl)thieno[2,3-b]pyridin-4-yl)benzo[d]thiazol-5-amine] | ≤ 10 nM
CC(C)N1CCCC(c2cc3c(Nc4ccc5scnc5c4)ccnc3s2)C1C (stereo not shown) [Example 8, N-(2-(1-isopropyl-2-methylpiperidin-3-yl)thieno[2,3-b]pyridin-4-yl)benzo[d]thiazol-5-amine] | ≤ 10 nM
CC(=O)N1CCC=C(c2cc3c(Nc4ccc5scnc5c4)ccnc3s2)C1C (stereo not shown) [Example 9, 1-(5-(4-(benzo[d]thiazol-5-ylamino)thieno[2,3-b]pyridin-2-yl)-6-methyl-3,6-dihydropyridin-1(2H)-yl)ethan-1-one] | 10 to 20 nM
CC(=O)N1CCCC(c2cc3c(Nc4ccc5scnc5c4)ccnc3s2)C1C (stereo not shown) [Example 10, 1-(3-(4-(benzo[d]thiazol-5-ylamino)thieno[2,3-b]pyridin-2-yl)-2-methylpiperidin-1-yl)ethan-1-one] | ≤ 10 nM
COCC(=O)N1CCC=C(c2cc3c(Nc4ccc5scnc5c4)ccnc3s2)C1C (stereo not shown) [Example 11, 1-(5-(4-(benzo[d]thiazol-5-ylamino)thieno[2,3-b]pyridin-2-yl)-6-methyl-3,6-dihydro-pyridin-1(2H)-yl)-2-methoxyethan-1-one] | ≤ 10 nM
COCCN1CCC=C(c2cc3c(Nc4ccc5scnc5c4)ccnc3s2)C1C (stereo not shown) [Example 12, N-(2-(1-(2-methoxyethyl)-2-methyl-1,2,5,6-tetrahydropyridin-3-yl)thieno[2,3-b]pyridin-4-yl)benzo[d]thiazol-5-amine] | ≤ 10 nM
COCCN1CCCC(c2cc3c(Nc4ccc5scnc5c4)ccnc3s2)C1C (stereo not shown) [Example 13, N-(2-(1-(2-methoxyethyl)-2-methylpiperidin-3-yl)thieno[2,3-b]pyridin-4-yl)benzo[d]thiazol-5-amine] | ≤ 10 nM
CC1C(c2cc3c(Nc4ccc5scnc5c4)ccnc3s2)CCCN1CCF (stereo not shown) [Example 14, N-(2-(1-(2-fluoroethyl)-2-methylpiperidin-3-yl)thieno[2,3-b]pyridin-4-yl)benzo[d]thiazol-5-amine] | ≤ 10 nM
CC1C(c2cc3c(Nc4ccc5scnc5c4)ccnc3s2)CCCN1CC(F)F (stereo not shown) [Example 15, N-(2-(1-(2,2-difluoroethyl)-2-methylpiperidin-3-yl)thieno[2,3-b]pyridin-4-yl)benzo[d]thiazol-5-amine] | 20 to 50 nM
CC1C(c2cc3c(Nc4ccc5scnc5c4)ccnc3s2)CCCN1C1COC1 (stereo not shown) [Example 17, N-(2-(2-methyl-1-(oxetan-3-yl)piperidin-3-yl)thieno[2,3-b]pyridin-4-yl)benzo[d]thiazol-5-amine] | 10 to 20 nM
CC1C(c2cc3c(Nc4ccc5scnc5c4)ccnc3s2)CCCN1CCCN (stereo not shown) [Example 18, N-(2-(1-(3-aminopropyl)-2-methylpiperidin-3-yl)thieno[2,3-b]pyridin-4-yl)benzo[d]thiazol-5-amine] | ≤ 10 nM
CCOCCN1CCCC(c2cc3c(Nc4ccc5scnc5c4)ccnc3s2)C1C (stereo not shown) [Example 19, N-(2-(1-(2-ethoxyethyl)-2-methylpiperidin-3-yl)thieno[2,3-b]pyridin-4-yl)benzo[d]thiazol-5-amine] | 10 to 20 nM
CC1C(c2cc3c(Nc4ccc5scnc5c4)ccnc3s2)CCCN1CCO (stereo not shown) [Example 20, 2-(3-(4-(benzo[d]thiazol-5-ylamino)thieno[2,3-b]pyridin-2-yl)-2-methylpiperidin-1-yl)ethan-1-ol] | ≤ 10 nM
c1cc(Nc2ccc3scnc3c2)c2cc(C3CCCN4CCCCC34)sc2n1 (stereo not shown) [Example 21, N-(2-(octahydro-2H-quinolizin-1-yl)thieno[2,3-b]pyridin-4-yl)benzo[d]thiazol-5-amine] | 20 to 50 nM
CCC1C(c2cc3c(Nc4ccc5scnc5c4)ccnc3s2)CCCN1CC (stereo not shown) [Example 24, N-(2-(1,2-diethylpiperidin-3-yl)thieno[2,3-b]pyridin-4-yl)benzo[d]thiazol-5-amine] | 10 to 20 nM
CC1NCC=C1c1cc2c(Nc3ccc4scnc4c3)ccnc2s1 (stereo not shown) [Example 25, N-(2-(2-methyl-2,5-dihydro-1H-pyrrol-3-yl)thieno[2,3-b]pyridin-4-yl)benzo[d]thiazol-5-amine] | ≤ 10 nM
CC1NCCC1c1cc2c(Nc3ccc4scnc4c3)ccnc2s1 (stereo not shown) [Example 26, N-(2-(2-methylpyrrolidin-3-yl)thieno[2,3-b]pyridin-4-yl)benzo[d]thiazol-5-amine] | ≤ 10 nM
